# Test results from ChEMBL document CHEMBL1137488, “Strategies toward improving the brain penetration of macrocyclic tertiary carbinamine BACE-1 inhibitors” (Bioorg Med Chem Lett, 2007).
# Experiments:
# P-glycoprotein = assay: Apparent permeability in human KBV1 cells overexpressing P-glycoprotein; format: ADME, cell-based, KB-V1
# [1] = Drug level in mouse brain at 30 mg/kg, ip after 2 hrs; format: ADME, organism-based; set-up: dose 30 mg/kg, route intraperitoneal; conditions: read-out: Drug uptake
Papp (P-glycoprotein),concentration at 2 h [1],Compound
20 ×10⁻⁶ cm/s,,CN(c1cc2cc(n1)N(Cc1ccccc1)CCCCc1cccc(c1)C[C@@](C)(N)C(=O)OC2)S(C)(=O)=O
14 ×10⁻⁶ cm/s,637 nM,CC1CCc2cccc(c2)C[C@@](C)(N)C(=O)OCc2cc(nc(N(C)S(C)(=O)=O)c2)CC1 (stereo partly drawn)
9 ×10⁻⁶ cm/s,,CN(c1cc2cc(n1)CCC(c1ccccc1)CCc1cccc(c1)C[C@@](C)(N)C(=O)OC2)S(C)(=O)=O (stereo partly drawn)
11 ×10⁻⁶ cm/s,,CN(c1cc2cc(n1)NCCCCc1cccc(c1)C[C@@](C)(N)C(=O)OC2)S(C)(=O)=O
8 ×10⁻⁶ cm/s,,CN(c1cc2cc(n1)N(CC1CC1)CCCCc1cccc(c1)C[C@@](C)(N)C(=O)OC2)S(C)(=O)=O
16 ×10⁻⁶ cm/s,,CC1CCc2cccc(c2)C[C@@](C)(N)C(=O)OCc2cc(cc(N(C)S(C)(=O)=O)c2)CC1 (stereo partly drawn)
29 ×10⁻⁶ cm/s,,CN(c1cc2cc(n1)CCCCCc1cccc(c1)C[C@@](C)(N)C(=O)OC2)S(C)(=O)=O
